Experimental data published in PubChem BioAssay (NCI).
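1) Cells in 96-well plates. 2) Compound, 48 h, 5 concentrations. 3) Linear interpolation between surrounding doses. 4) Unreached endpoint = highest concentration. TGI: total growth inhibition.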

Tests used:
Assay in all cases: NCI-60 cell line screen, 48 h
UACC-62 melanoma = test system: UACC-62 melanoma
HOP-92 NSCLC = test system: HOP-92 NSCLC
786-0 renal = test system: 786-0 renal
CAKI-1 renal = test system: CAKI-1 renal
SW-620 colon = test system: SW-620 colon
NCI-H460 lung = test system: NCI-H460 lung
HS 578T breast = test system: HS 578T breast
SF-295 CNS = test system: SF-295 CNS
SN12C renal = test system: SN12C renal
HT29 colon = test system: HT29 colon
DU-145 prostate = test system: DU-145 prostate
SF-539 CNS = test system: SF-539 CNS
SNB-75 CNS = test system: SNB-75 CNS
LOX IMVI melanoma = test system: LOX IMVI melanoma
HCT-116 colon = test system: HCT-116 colon
MALME-3M melanoma = test system: MALME-3M melanoma
A549 NSCLC = test system: A549 NSCLC
UACC-257 melanoma = test system: UACC-257 melanoma
OVCAR-5 ovarian = test system: OVCAR-5 ovarian
NCI-H522 lung = test system: NCI-H522 lung
SF-268 CNS = test system: SF-268 CNS
EKVX NSCLC = test system: EKVX NSCLC
BT-549 breast = test system: BT-549 breast
MCF7 breast = test system: MCF7 breast
M14 melanoma = test system: M14 melanoma
MDA-N = test system: MDA-N
ACHN renal = test system: ACHN renal
TK-10 renal = test system: TK-10 renal
HCC-2998 colon = test system: HCC-2998 colon
MDA-MB-231 breast = test system: MDA-MB-231 breast
SK-MEL-28 melanoma = test system: SK-MEL-28 melanoma
SK-MEL-5 melanoma = test system: SK-MEL-5 melanoma
PC-3 prostate = test system: PC-3 prostate
MDA-MB-435 = test system: MDA-MB-435
U251 CNS = test system: U251 CNS
UO-31 renal = test system: UO-31 renal
SK-MEL-2 melanoma = test system: SK-MEL-2 melanoma
CCRF-CEM leukemia = test system: CCRF-CEM leukemia
COLO 205 colon = test system: COLO 205 colon
K-562 leukemia = test system: K-562 leukemia
SNB-19 CNS = test system: SNB-19 CNS
A498 renal = test system: A498 renal
IGROV1 ovarian = test system: IGROV1 ovarian
KM12 colon = test system: KM12 colon
OVCAR-3 ovarian = test system: OVCAR-3 ovarian
HOP-62 NSCLC = test system: HOP-62 NSCLC
SK-OV-3 ovarian = test system: SK-OV-3 ovarian
HCT-15 colon = test system: HCT-15 colon
MOLT-4 leukemia = test system: MOLT-4 leukemia
NCI-H23 lung = test system: NCI-H23 lung
RPMI-8226 leukemia = test system: RPMI-8226 leukemia
OVCAR-8 ovarian = test system: OVCAR-8 ovarian
NCI-H226 lung = test system: NCI-H226 lung
HL-60(TB) leukemia = test system: HL-60(TB) leukemia
T-47D breast = test system: T-47D breast
NCI/ADR-RES ovarian = test system: NCI/ADR-RES ovarian
OVCAR-4 ovarian = test system: OVCAR-4 ovarian
RXF 393 renal = test system: RXF 393 renal

Compound `CNC(=O)CNC(=O)CCC(=O)N(C)C` has a TGI (UACC-62 melanoma) of over 100 µM, a TGI (HOP-92 NSCLC) of over 100 µM and a TGI (786-0 renal) of over 100 µM. For the same compound, the TGI (CAKI-1 renal) was over 100 µM, the TGI (SW-620 colon) was over 100 µM and the TGI (NCI-H460 lung) was over 100 µM. For the same compound, the TGI (HS 578T breast) was over 100 µM, the TGI (SF-295 CNS) was over 100 µM and the TGI (SN12C renal) was over 100 µM. It also gave a TGI (HT29 colon) of over 100 µM, a TGI (DU-145 prostate) of over 100 µM and a TGI (SF-539 CNS) of over 100 µM. The TGI (SNB-75 CNS) was over 100 µM, the TGI (LOX IMVI melanoma) was over 100 µM and the TGI (HCT-116 colon) was over 100 µM. It also gave a TGI (MALME-3M melanoma) of over 100 µM, a TGI (A549 NSCLC) of over 100 µM and a TGI (UACC-257 melanoma) of over 100 µM. It also gave a TGI (OVCAR-5 ovarian) of over 100 µM, a TGI (NCI-H522 lung) of over 100 µM and a TGI (SF-268 CNS) of over 100 µM. The TGI (EKVX NSCLC) was over 100 µM, the TGI (BT-549 breast) was over 100 µM and the TGI (MCF7 breast) was over 100 µM. It also gave a TGI (M14 melanoma) of over 100 µM, a TGI (MDA-N) of over 100 µM and a TGI (ACHN renal) of over 100 µM. It also gave a TGI (TK-10 renal) of over 100 µM, a TGI (HCC-2998 colon) of over 100 µM and a TGI (MDA-MB-231 breast) of over 100 µM. For the same compound, the TGI (SK-MEL-28 melanoma) was over 100 µM, the TGI (SK-MEL-5 melanoma) was over 100 µM and the TGI (PC-3 prostate) was over 100 µM. The TGI (MDA-MB-435) was over 100 µM, the TGI (U251 CNS) was over 100 µM and the TGI (UO-31 renal) was over 100 µM. It also gave a TGI (SK-MEL-2 melanoma) of over 100 µM, a TGI (CCRF-CEM leukemia) of over 100 µM and a TGI (COLO 205 colon) of over 100 µM. It also gave a TGI (K-562 leukemia) of over 100 µM, a TGI (SNB-19 CNS) of over 100 µM and a TGI (A498 renal) of over 100 µM. The TGI (IGROV1 ovarian) was over 100 µM, the TGI (KM12 colon) was over 100 µM and the TGI (OVCAR-3 ovarian) was over 100 µM. The TGI (HOP-62 NSCLC) was over 100 µM, the TGI (SK-OV-3 ovarian) was over 100 µM and the TGI (HCT-15 colon) was over 100 µM. The TGI (MOLT-4 leukemia) was over 100 µM, the TGI (NCI-H23 lung) was over 100 µM and the TGI (RPMI-8226 leukemia) was over 100 µM. It also gave a TGI (OVCAR-8 ovarian) of over 100 µM, a TGI (NCI-H226 lung) of over 100 µM and a TGI (HL-60(TB) leukemia) of over 100 µM. The TGI (T-47D breast) was over 100 µM and the TGI (NCI/ADR-RES ovarian) was over 100 µM.
With `FC(F)(F)C1(C(F)(F)F)OC(Cl)(Cl)C(Cl)(Cl)O1` the TGI (UACC-62 melanoma) was over 10 µM, the TGI (HOP-92 NSCLC) was over 10 µM and the TGI (786-0 renal) was over 10 µM. It also gave a TGI (CAKI-1 renal) of over 10 µM, a TGI (SW-620 colon) of over 10 µM and a TGI (NCI-H460 lung) of over 10 µM. The TGI (HS 578T breast) was over 10 µM, the TGI (SF-295 CNS) was over 10 µM and the TGI (HT29 colon) was over 10 µM. For the same compound, the TGI (DU-145 prostate) was over 10 µM, the TGI (SF-539 CNS) was over 10 µM and the TGI (OVCAR-4 ovarian) was over 10 µM. It also gave a TGI (LOX IMVI melanoma) of over 10 µM, a TGI (HCT-116 colon) of over 10 µM and a TGI (MALME-3M melanoma) of over 10 µM. It also gave a TGI (A549 NSCLC) of over 10 µM, a TGI (UACC-257 melanoma) of over 10 µM and a TGI (OVCAR-5 ovarian) of over 10 µM. For the same compound, the TGI (NCI-H522 lung) was over 10 µM, the TGI (SF-268 CNS) was over 10 µM and the TGI (EKVX NSCLC) was over 10 µM. For the same compound, the TGI (BT-549 breast) was over 10 µM, the TGI (MCF7 breast) was over 10 µM and the TGI (M14 melanoma) was over 10 µM. The TGI (MDA-N) was over 10 µM, the TGI (ACHN renal) was over 10 µM and the TGI (TK-10 renal) was over 10 µM. For the same compound, the TGI (HCC-2998 colon) was over 10 µM, the TGI (MDA-MB-231 breast) was over 10 µM and the TGI (SK-MEL-28 melanoma) was over 10 µM. For the same compound, the TGI (SK-MEL-5 melanoma) was over 10 µM, the TGI (PC-3 prostate) was over 10 µM and the TGI (MDA-MB-435) was over 10 µM. It also gave a TGI (U251 CNS) of over 10 µM, a TGI (SK-MEL-2 melanoma) of over 10 µM and a TGI (COLO 205 colon) of over 10 µM. For the same compound, the TGI (SNB-19 CNS) was over 10 µM, the TGI (A498 renal) was over 10 µM and the TGI (IGROV1 ovarian) was over 10 µM. The TGI (KM12 colon) was over 10 µM, the TGI (OVCAR-3 ovarian) was over 10 µM and the TGI (HOP-62 NSCLC) was over 10 µM. The TGI (SK-OV-3 ovarian) was over 10 µM, the TGI (HCT-15 colon) was over 10 µM and the TGI (NCI-H23 lung) was over 10 µM. It also gave a TGI (RXF 393 renal) of over 10 µM, a TGI (OVCAR-8 ovarian) of over 10 µM and a TGI (NCI-H226 lung) of over 10 µM. The TGI (T-47D breast) was over 10 µM and the TGI (NCI/ADR-RES ovarian) was over 10 µM.
